Biological target: T1, recombinant human GR (Homo sapiens, UniProt P04150)
T1 construct: purchased Panvera/Invitrogen P2812 (kit P2893)
T1 sequence (P04150 1-777): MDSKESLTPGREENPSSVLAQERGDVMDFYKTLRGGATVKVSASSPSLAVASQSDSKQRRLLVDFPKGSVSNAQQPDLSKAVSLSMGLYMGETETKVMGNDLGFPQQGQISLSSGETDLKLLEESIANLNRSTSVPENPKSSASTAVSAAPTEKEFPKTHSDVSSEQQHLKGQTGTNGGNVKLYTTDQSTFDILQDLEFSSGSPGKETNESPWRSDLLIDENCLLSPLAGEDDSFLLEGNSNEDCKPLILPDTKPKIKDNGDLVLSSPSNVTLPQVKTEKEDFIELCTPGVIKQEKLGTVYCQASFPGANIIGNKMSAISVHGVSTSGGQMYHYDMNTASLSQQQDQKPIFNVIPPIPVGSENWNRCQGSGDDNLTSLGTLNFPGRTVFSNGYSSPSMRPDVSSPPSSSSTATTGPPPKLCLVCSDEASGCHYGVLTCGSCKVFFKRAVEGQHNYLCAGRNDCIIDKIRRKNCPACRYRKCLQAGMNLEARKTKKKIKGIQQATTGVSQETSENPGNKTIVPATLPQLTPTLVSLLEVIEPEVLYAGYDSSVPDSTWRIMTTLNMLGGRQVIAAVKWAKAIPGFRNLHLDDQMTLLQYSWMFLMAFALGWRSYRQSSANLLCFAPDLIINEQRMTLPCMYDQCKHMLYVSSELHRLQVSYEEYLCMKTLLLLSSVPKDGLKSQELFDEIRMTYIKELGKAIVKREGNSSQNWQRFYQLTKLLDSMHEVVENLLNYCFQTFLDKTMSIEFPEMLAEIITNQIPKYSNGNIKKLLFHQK
Test: Human Glucocorticoid Receptor (GR) Assay, fluorescence polarization
Format: binding
Settings: GS Red tracer, incubated 2 h at r.t., XLfit model 205, read-out: GRhuFL_FP_v2 Mean IC50
Method in brief: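 Fluorescence polarization kit assay: recombinant GR and GS Red fluorescent ligand with Stabilizing Peptide and DTT in potassium phosphate/sodium molybdate/EDTA screening buffer. Plates incubated 2 h in the dark at r.t.; DMSO served as 0% and dexamethasone as 100% control.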

Row | IC50 | SMILES
1 | 3.9 nM | COc1cccc([C@@H](Oc2ccc3c(cnn3-c3ccc(F)cc3)c2)[C@H](C)NC(=O)c2scnc2C)c1 [Example 289, N-[(1R,2S)-1-[1-(4-fluorophenyl)indazol-5-yl]oxy-1-(3-methoxyphenyl)propan-2-yl]-4-methyl-1,3-thiazole-5-carboxamide]
2 | 7.3 nM | CCCc1ccc([C@@H](Oc2ccc3c(cnn3-c3ccc(F)cc3)c2)[C@H](C)NC(=O)C(C)(C)C)cc1 [Example 188, N-[(1R,2S)-1-[1-(4-fluorophenyl)indazol-5-yl]oxy-1-(4-propylphenyl)propan-2-yl]-2,2-dimethyl-propanamide]
3 | 3.9 nM | Cc1cc2c(cnn2-c2ccc(F)cc2)cc1O[C@H](c1ccccc1)[C@H](C)NC(=O)CO [Example 64, N-[(1R,2S)-1-[1-(4-Fluorophenyl)-6-methyl-indazol-5-yl]oxy-1-phenyl-propan-2-yl]-2-hydroxy-acetamide]
4 | 4.1 nM | COc1ccccc1[C@@H](Oc1ccc2c(cnn2-c2ccc(F)cc2)c1)[C@H](C)NC(=O)c1ncc(C)s1 [Example 209, N-[(1R,2S)-1-[1-(4-fluorophenyl)indazol-5-yl]oxy-1-(2-methoxyphenyl)propan-2-yl]-5-methyl-1,3-thiazole-2-carboxamide]
5 | 3.8 nM | COc1cccc([C@@H](Oc2ccc3c(cnn3-c3ccc(F)cc3)c2)[C@H](C)NC(=O)c2nc[nH]n2)c1 [Example 281, N-[(1R,2S)-1-[1-(4-fluorophenyl)indazol-5-yl]oxy-1-(3-methoxyphenyl)propan-2-yl]-1H-1,2,4-triazole-3-carboxamide]
6 | 4.7 nM | COc1cccc([C@@H](Oc2ccc3c(cnn3-c3ccc(F)cc3)c2)[C@H](C)NC(=O)c2cn(C)cn2)c1 [Example 283, N-[(1R,2S)-1-[1-(4-fluorophenyl)indazol-5-yl]oxy-1-(3-methoxyphenyl)propan-2-yl]-1-methyl-imidazole-4-carboxamide]
7 | 4 nM | CC(C)[C@@H](C)NC(=O)N[C@@H](C)[C@H](Oc1ccc2c(cnn2-c2ccc(F)cc2)c1)c1ccccc1 [Example 107]
8 | 4.3 nM | CCc1ccc([C@@H](Oc2ccc3c(cnn3-c3ccc(F)cc3)c2)[C@H](C)NC(=O)C(C)C)cc1 [Example 51, N-[(1R,2S)-1-(4-ethylphenyl)-1-[1-(4-fluorophenyl)indazol-5-yl]oxy-propan-2-yl]-2-methyl-propanamide]
9 | 5.1 nM | C[C@H](NC(=O)C(C)(C)C)[C@H](Oc1ccc2c(cnn2-c2ccc(F)cc2)c1)c1cc(F)cc(Cl)c1 [Example 184, N-[(1R,2S)-1-(3-chloro-5-fluoro-phenyl)-1-[1-(4-fluorophenyl)indazol-5-yl]oxy-propan-2-yl]-2,2-dimethyl-propanamide]
10 | 21 nM | COC[C@H](NC(=O)c1ccco1)[C@H](Oc1ccc2c(cnn2-c2ccc(F)cc2)c1)c1cccc(F)c1 [Example 112, N-[(1S)-(2R)-(3-Fluorophenyl)-2-{[1-(4-fluorophenyl)-1H-indazol-5-yl]oxy}-1-(methoxymethyl)ethyl]furan-2-carboxamide]
11 | 5.6 nM | C[C@H](NC(=O)C(F)(F)F)[C@H](Oc1ccc2c(cnn2-c2ccc(CN3CCOCC3)cc2)c1)c1ccccc1 [Example 142, 2,2,2-trifluoro-N-((1R,2S)-1-(1-(4-(morpholinomethyl)phenyl)-1H-indazol-5-yloxy)-1-phenylpropan-2-yl)acetamide]
12 | 3.3 nM | COc1cccc([C@@H](Oc2ccc3c(cnn3-c3ccc(F)cc3)c2)[C@H](C)NC(=O)C(C)C)c1 [Example 55, N-[(1R,2S)-1-[1-(4-fluorophenyl)indazol-5-yl]oxy-1-(3-methoxyphenyl)propan-2-yl]-2-methyl-propanamide]
13 | 5.2 nM | CCC[C@H](NC(=O)CO)[C@H](Oc1ccc2c(cnn2-c2ccc(F)cc2)c1)c1ccccc1 [Example 91, N-((1R,2S)-1-(1-(4-fluorophenyl)-1H-indazol-5-yloxy)-1-phenylpentan-2-yl)-2-hydroxyacetamide]
